In PubChem BioAssay (NCI):
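Protocol summary: plate cells (96-well), add compound at 5 concentrations, incubate 48 h, interpolate endpoints linearly. TGI is the concentration that stops growth completely.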

Key:
Test in all cases: inhibition of tumour cell growth, NCI panel, 48 h
MCF7 breast = tested on: MCF7 breast
SK-MEL-28 melanoma = tested on: SK-MEL-28 melanoma
DU-145 prostate = tested on: DU-145 prostate
OVCAR-4 ovarian = tested on: OVCAR-4 ovarian
KM12 colon = tested on: KM12 colon
ACHN renal = tested on: ACHN renal
UO-31 renal = tested on: UO-31 renal
HOP-92 NSCLC = tested on: HOP-92 NSCLC
HCT-116 colon = tested on: HCT-116 colon
TK-10 renal = tested on: TK-10 renal

Compound | TGI (MCF7 breast) | TGI (SK-MEL-28 melanoma) | TGI (DU-145 prostate) | TGI (OVCAR-4 ovarian) | TGI (KM12 colon) | TGI (ACHN renal) | TGI (UO-31 renal) | TGI (HOP-92 NSCLC) | TGI (HCT-116 colon) | TGI (TK-10 renal)
COc1ccc(-c2c(-c3ccccc3)c(C)c3ccccn23)cc1 | > 100 µM | > 100 µM | > 100 µM | > 100 µM | > 100 µM | > 100 µM | > 100 µM | > 100 µM | > 100 µM | > 100 µM
O=C1NC(Nc2ccccc2)=N/C1=C\c1c(Cl)cccc1Cl | 56 µM | > 100 µM | 76.3 µM | 25.5 µM | > 100 µM | > 100 µM | 18.4 µM | 39.9 µM | > 100 µM | 47.2 µM
COc1ccc2oc(S(=O)(=O)N3CC(CCl)c4ccc(N)cc43)cc2c1 (stereo not given) | > 58.6 µM | > 100 µM | 0.515 µM | > 100 µM | 6.02 µM | > 94.6 µM | > 100 µM | > 64.7 µM | > 8.26 µM | > 100 µM
CO/N=C\c1ccc2c(c1)Sc1ccccc1O2 | > 100 µM | > 100 µM | > 100 µM | > 100 µM | > 100 µM | > 100 µM | > 100 µM | > 100 µM | > 100 µM | > 100 µM
N#CCCN(CCC#N)c1ccc(/C=C2\N=C(c3ccccc3)N(c3ccc(C(=O)O)cc3)C2=O)cc1 | > 100 µM | > 100 µM | > 100 µM | 66.8 µM | 31 µM | > 100 µM | > 100 µM | 30.1 µM | > 100 µM | > 100 µM
N#[N+]c1c([O-])c2ccccc2c2ccccc12 | > 100 µM | > 100 µM | > 100 µM | > 100 µM | > 100 µM | > 100 µM | > 100 µM | > 100 µM | > 100 µM | > 100 µM
CC12CCCCC1=C(F)C(F)(F)S2 (stereo not given) | > 79.6 µM | 78.2 µM | > 100 µM | > 100 µM | > 100 µM | 51.6 µM | 24.4 µM | > 67.9 µM | 58.5 µM | 69.9 µM
Oc1ccc(/C=C/c2cccc(/C=C/c3ccc(O)c(O)c3)n2)cc1O | 25.8 µM | 38.3 µM | 20.6 µM | > 100 µM | 36.2 µM | 18.7 µM | 11.2 µM | 25.3 µM | 20.1 µM | 23.6 µM
CCC(C)C(N)C(=O)N/N=C\c1c2c(nc3ccccc13)-c1cc3c(c(=O)n1C2)COC(=O)[C@]3(O)CC (stereo not given in full) | 1.61 µM | > 100 µM | 2.04 µM | 52.6 µM | > 22.5 µM | 0.575 µM | 1.4 µM | 1.8 µM | 2.96 µM | > 100 µM
CC1(C)OCC(C2OC3OC(C)(C)OC3C2c2ccccc2)O1 (stereo not given) | > 100 µM | > 100 µM | > 100 µM | > 100 µM | > 100 µM | > 100 µM | > 100 µM | 79 µM | > 100 µM | > 100 µM
CCC(=O)N/S(=N/S(=O)(=O)c1ccccc1)C(Cl)(Cl)Cl (stereo not given) | > 100 µM | > 100 µM | > 100 µM | > 100 µM | > 100 µM | > 100 µM | > 100 µM | > 100 µM | > 100 µM | > 100 µM
N#Cc1c(Cl)c2cccnc2n2c1nc1ccccc12 | > 25.1 µM | 9.75 µM | 4.03 µM | 5.29 µM | 20.3 µM | 3.2 µM | 3.33 µM | 3.91 µM | 3.19 µM | 3.09 µM
O=c1[nH]nc(-c2ccccc2)n1/N=C/c1cccc([N+](=O)[O-])c1 | > 100 µM | > 100 µM | > 100 µM | > 100 µM | > 100 µM | > 100 µM | > 100 µM | > 100 µM | > 100 µM | > 100 µM
C[C@H]1C2Cc3cc(O)ccc3[C@@]1(C)CCN2CCc1ccc(N)cc1 | 28.4 µM | 34.4 µM | > 100 µM | > 100 µM | 34.3 µM | > 100 µM | > 100 µM | 73.7 µM | 31.2 µM | > 100 µM
COC(=O)C1Cc2c(OC)ccc(OC)c2C(O)C1C(=O)OC (stereo not given) | > 100 µM | > 100 µM | > 100 µM | > 100 µM | > 100 µM | > 100 µM | > 100 µM | > 100 µM | > 100 µM | > 100 µM
COC(=O)c1c(CC(Cc2ccc3c(c2)CCCC3)C(=O)O)ccc2c1CCCC2 (stereo not given) | 84.1 µM | > 100 µM | > 100 µM | > 100 µM | 77.2 µM | > 100 µM | 62.3 µM | 50.9 µM | 33.1 µM | > 100 µM
CCOC(=O)C(=CNc1ccc(N(C2=NCC(C)S2)c2ccc(F)c(Cl)c2)cc1)C(=O)OCC (stereo not given) | 53.9 µM | 42.5 µM | 43.9 µM | 65.3 µM | 33.6 µM | 39.8 µM | 38.6 µM | 36.1 µM | 31.4 µM | 57.1 µM
